Test results reported in article PMC6058720, “Dual-ligand modified liposomes provide effective local targeted delivery of lung-cancer drug by antibody and tumor lineage-homing cell-penetrating peptide” (Drug Delivery, 2018).
In brackets after ≈: the same amount, converted by molar mass.

Columns and labels:
[1] = In vitro drug release study (dialysis, PBS pH 7.4); assay type: physicochemical; settings: PBS pH 7.4, 37 °C, over 96 h, dialysis under sink conditions
Description: Briefly, 1 mL of dl-TPL-lip, CA IX-TPL-lip, CPP33-TPL-lip, TPL-lip, and free TPL solution (0.05 mg/mL) was placed into dialysis tubes with a molecular cut-off of MWCO 12–14 kDa and dialyzed in 10 mL of PBS (pH 7.4) at 37 °C. At predetermined time intervals, 100 μL of release medium was taken out and replaced with equal volume of fresh medium. The concentration of TPL in release medium was then determined by UPLC.

[2] = Pharmacokinetics study after pulmonary (endotracheal) administration to rats; set-up: species or system Sprague Dawley rats; settings: rat, in vivo, 0.5 mg/kg
Description: Sprague–Dawley (SD) rats were divided randomly into five groups (n = four per group). Rats were fasted for 12 h before the experiment, but allowed water ad libitum. Free TPL, TPL-lip, CPP33-TPL-lip, CA IX-TPL-lip, and dl-TPL-lip were administered directly via pulmonary delivery using a Microsprayer Aerosolizer Pulmonary Aerosol Kit for Mouse Model PAK-MSA (Penn-Century, Inc. Wyndmoor, PA19038, USA) at a dose of 0.5 mg/kg. Blood samples (0.4 mL) were obtained before dosing and at designated time points (0.083, 0.5, 1, 2, 4, 6, 8, 12 h). The samples were collected into heparinized tube from the suborbital veins and were centrifuged for 10 min at 4,000 rpm. The plasma was analyzed by Agilent 1290 Ultra High Performance Liquid Chromatograph with Agilent 6460 Triple Quadrupole Mass Spectrometer system (UHPLC-QQQ MS/MS, Santa Clara, USA) (Xue et al., [2012]; Zhuang et al., [2013]).
The TPL pharmacokinetic parameters in […] after endotracheal administration were calculated and summarized by DAS 2.1.1. Statistical analyses for anti-cancer effect study were evaluated by two-way ANOVA with Bonferroni posttests using GraphPad Prism 6 (GraphPad Software, Inc, La Jolla, USA). […]
44 Analytical method for pharmacokinetics study
45 Hydrocortisone was added (50 μL, 200 ng/mL) as an internal standard (IS) to 0.2
46 mL of plasma. The samples were mixed, and extracted with ethyl acetate (750 μL)
47 followed by vortexing for 4min and centrifuging for 10min at 8000 rpm. The upper
48 organic phase was carefully transferred and e vaporated to dryness in vacuum. The
49 residues were dissolved in 100μL methanol and centrifuged at 4000rpm for 10 min,
50 then the supernatant was collected and injected into the Agilent 1290 Ultra High
51 Performance Liquid Chromatograph with Agilent 6460 Triple Quadrupole Mass
52 Spectrometer system (UHPLC-QQQ MS/MS).
53 Chromatography conditions: Waters Acquity BEH C18 (2.1×50 mm); Mobile phase
54 0.1% formic acid in water: 0.1% formic acid in acetonitrile =80:20 v/v; Flow rate 0.35
55 mL/min; Running time 10 min.
56 Mass spectrometer conditions: Ion Source Agilent Jet Stream electro spray
57 ionization (AJS ESI); Positive mode; Gas Temperature 300 °C; Gas flow rate 8 L/min;
58 Nebulizer 40 psi; SheathGasHeater 350°C; SheathGasFlow 8 L/min; Capillary 3500
60 Firstly, optimization of mass spectrometry was initiated by automatic tuning of the
61 instrument (Figure S1). Method validation was conducted before the sample analysis.
62 The specificity of the established method was assessed by comparing the
63 chromatograms of blank plasma, blank plasma with TPL, blank plasma with IS, and
64 plasma after endotracheal administration (Figure S2). The calibration curve in rat
65 plasma was linear over the ranges 10-2500 ng/mL in rat plasma (y=0.375035x +
67 accuracy and precision both intra-day and inter-day were less than 10%. The method
68 was sufficiently accurate and consistent for proceeding for the biological analysis of
69 TPL (Table S1). Therefore, the established method was applied to the analysis of rat

[3] = system: orthotopic lung tumor (A549-Red-FLuc cells); assay: Anti-cancer effect in orthotopic mice model of lung cancer (bioluminescence imaging); assay type: in vivo, BALB/c nu/nu mice; settings: pulmonary delivery, 0.3 mg/kg, four doses; control increased ∼6-fold; n = 5
Description: An orthotopic lung tumor-bearing mice model was established as previously reported. Briefly, the male BALB/c nu/nu mice (7–8 weeks) were anesthetized with 5% of chloral hydrate and 100 μL of A549-Red-FLuc cells (2 × 10^6 cells) solution in Matrigel (1:1). Experimental solutions were injected percutaneously into the right lateral thorax of each mouse using a 1 mL syringe with 29-gauge needle. On day seven after tumor cell inoculation, bioluminescence was measured using the IVIS Lumina XR system (Caliper, Hopking, MA) to check the successful establishment of lung cancer. D-luciferin substrate (i.p., 150 mg/kg in 0.9% saline solution) was injected 15 min before bioluminescence imaging. On day 19 after tumor cell inoculation, the mice were sacrificed and lungs were immediately resected.
On day seven following tumor cells inoculation, the orthothopic lung tumor-bearing mice (n = 30) were grouped into six treatment groups based on equivalent signal intensity of the tumor bioluminescence: Free TPL, TPL-lip, CA IX-TPL-lip, CPP33-TPL-lip, dl-TPL-lip, and control group with saline. […] Tumor growth was monitored weekly by bioluminescence imaging as before, during, and after the TPL treatment. Body weight of the mice was recorded weekly during the course of the study. […]
The TPL pharmacokinetic parameters in mice after endotracheal administration were calculated and summarized by DAS 2.1.1. […]

[4] = set-up: method as in Chen et al., [2012a]; Reno et al., [2015]; Li et al., [2016]; settings: ref Chen et al., [2012a]; Reno et al., [2015]; Li et al., [2016]; cited from earlier work
[5] = Sprague-Dawley, inhaled or intranasal, endotracheal administration, plasma TPL, n = 4

CC(C)[C@]12O[C@H]1[C@@H]1O[C@]13[C@]1(O[C@H]1C[C@H]1C4=C(CC[C@@]13C)C(=O)OC4)[C@@H]2O [Free TPL, Triptolide]
TPL release profile [1]: rapid release profile
AUC(0-inf) [2, 5]: 225 ± 63.8 ng·h/mL
AUC(0-t) [2, 5]: 186 ± 36.5 ng·h/mL
Cmax [2, 5]: 188 ± 42.7 ng/mL
Tmax [2, 5]: 4.98 min
Cmax of TPL in blood compared to liposomal TPL [2]: three-fold higher
t1/2 [2]: 2.98 ± 0.54 H
Increase of tumors (bioluminescence) on day 31 [3]: ~3 fold
Solubility in water [4]: 17 µg/mL (≈ 47.2 µM)
